Results on one compound are retold here after patent US20020091265A1, “4-phenyl-pyridine derivatives” (priority 1999, published 2002).

The target of data set [1] is T1, human NK1 receptor (Homo sapiens, UniProt P25103). The experiment in a line: [3H]substance P binding at human NK1 receptors in CHO cells. As to conditions: [3H]substance P 0.6 nM, 60 min room temperature, read-out: affinity (pKi) for the human NK1 receptor (converted). How it is done:
All assays were performed in triplicate in at least2 separate experiments.

In a further data set the target is T2, NK2 receptors (Homo sapiens, UniProt P21452).
T2 sequence (P21452 1-398): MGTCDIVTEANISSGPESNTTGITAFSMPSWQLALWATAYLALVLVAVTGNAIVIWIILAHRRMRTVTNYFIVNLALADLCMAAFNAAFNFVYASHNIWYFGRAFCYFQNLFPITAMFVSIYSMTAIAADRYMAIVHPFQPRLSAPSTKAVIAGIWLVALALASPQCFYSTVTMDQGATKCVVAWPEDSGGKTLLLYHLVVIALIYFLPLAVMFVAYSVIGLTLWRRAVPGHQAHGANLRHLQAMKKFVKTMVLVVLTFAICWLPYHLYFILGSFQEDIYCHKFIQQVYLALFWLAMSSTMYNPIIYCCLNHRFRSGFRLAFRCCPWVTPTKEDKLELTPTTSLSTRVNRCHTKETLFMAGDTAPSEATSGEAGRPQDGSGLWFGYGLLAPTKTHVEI
The experiment in a line: Selectivity for NK1 compared to NK2 receptors. Type of data set: binding.

A short description of data set [2]: Pharmacokinetic parameters in rats. The following applies: rat, in vivo.
Data set [3] deals with motion sickness in the suncus murinus. The experiment in a line: Model of motion sickness in suncus murinus. Type of data set: in vivo. The following applies: po.
Another data set in a line: in vivo. The following applies: dog.
For data set [4], the system named is emesis induced in ferrets by emetogens. Put plainly: Antiemetic test in ferrets. Type of data set: in vivo, ferret. As for the experimental part:
The compound of formula 1a, 2-(3,5-Bis-trifluoromethyl-phenyl)-N-methyl-N-(6-morpholin-4-yl-4-o-tolyl-pyridin-3-yl)-isobutyramide, was also tested as an antiemetic agent in ferrets.
2-(3,5-bis-trifluoromethyl-phenyl)-N-methyl-N-[6-(4-methyl-piperazin-1-yl)-4-o-tolyl-pyridin-3-yl]-isobutyramide was also tested as an antiemetic agent in Ferrets.

Data set [5] deals with foot-tapping behaviour induced in gerbils with an NK1 receptor agonist. Put plainly: Foot-tapping behaviour induced by i.c.v. NK1 receptor agonist. Type of data set: in vivo, gerbil. How it is done:
In vivo the compound of formula Ia antagonises foot-tapping behaviour induced in gerbils with intracerebroventricular (i.c.v.) injections of an NK1 receptor agonist. The dose for this compound calculated to inhibit 50% of the foot-tapping behaviour following oral administration was 0.2 mg/kg.
In vivo 2-(3,5-bis-trifluoromethyl-phenyl)-N-methyl-N-[6-(4-methyl-piperazin-1-yl)-4-o-tolyl-pyridin-3-yl]-isobutyramide antagonises foot-tapping behaviour induced in Gerbils with intracerebroventricular (i.c.v.) injections of an NK1 receptor agonist. The dose of this compound calculated to inhibit 50% of the foot-tapping behaviour following oral administration was 0.5 mg/kg.
In vivo the compound of formula Ic antagonises foot-tapping behaviour induced in Gerbils with intracerebroventricular (i.c.v.) injections of an NK1 receptor agonist. The dose of this compound calculated to inhibit 50% of the foot-tapping behaviour following oral administration was 1.5 mg/kg.

The next data set deals with T3, NK3 receptors (Homo sapiens, UniProt P29371).
T3 sequence (P29371 1-465): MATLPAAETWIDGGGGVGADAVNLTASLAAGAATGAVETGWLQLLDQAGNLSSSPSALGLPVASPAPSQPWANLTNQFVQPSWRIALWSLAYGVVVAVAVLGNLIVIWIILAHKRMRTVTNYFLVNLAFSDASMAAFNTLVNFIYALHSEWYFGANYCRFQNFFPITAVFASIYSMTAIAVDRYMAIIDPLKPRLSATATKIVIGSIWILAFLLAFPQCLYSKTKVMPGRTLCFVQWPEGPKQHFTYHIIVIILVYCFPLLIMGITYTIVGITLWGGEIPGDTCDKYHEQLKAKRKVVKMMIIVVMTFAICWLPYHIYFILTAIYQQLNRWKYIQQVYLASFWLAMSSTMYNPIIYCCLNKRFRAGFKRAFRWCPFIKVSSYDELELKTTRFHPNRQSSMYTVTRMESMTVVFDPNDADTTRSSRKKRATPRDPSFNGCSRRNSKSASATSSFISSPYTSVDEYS
The experiment in a line: Selectivity for NK1 compared to NK3 receptors. Type of data set: binding.

The subject of data set [6] is over 50 other binding sites. Put plainly: Selectivity for NK1 compared to over 50 other binding sites.
In data set [7] the target is T1, human NK1 receptor. The experiment in a line: Substance P induced Ca2+ influx in CHO cells (FLIPR). Type of data set: cell-based. More on the design: expressed in transfected cells; host or cells: CHO cells. The text has this:
The activity in vitro of the compound of formula 1a was examined by studying its effect on substance P induced Ca^2+ influxes in CHO cells expressing the recombinant human NK1 receptor. In these cells, substance P causes a concentration dependent influx of Ca^2+ which can be measured using FLIPR technology.
The activity of 2-(3,5-bis-trifluoromethyl-phenyl)-N-methyl-N-[^6-(^4-methyl-piperazin-1-yl)-4-o-tolyl-pyridin-3-yl]-isobutyramide in vitro was examined by studying its effect on substance P induced Ca^2+influxes in CHO cells expressing the recombinant human NK1 receptor. In these cells, substance P causes a concentration dependent influx of Ca^2+ which can be measured using FLIPR technology.
The activity of the compound of formula Ic in vitro was examined by studying its effect on substance P induced Ca^2+ influxes in CHO cells expressing the recombinant human NK1 receptor. In these cells, substance P causes a concentration dependent influx of Ca^2+ which can be measured using FLIPR technology.

T1 sequence (P25103 whole entry): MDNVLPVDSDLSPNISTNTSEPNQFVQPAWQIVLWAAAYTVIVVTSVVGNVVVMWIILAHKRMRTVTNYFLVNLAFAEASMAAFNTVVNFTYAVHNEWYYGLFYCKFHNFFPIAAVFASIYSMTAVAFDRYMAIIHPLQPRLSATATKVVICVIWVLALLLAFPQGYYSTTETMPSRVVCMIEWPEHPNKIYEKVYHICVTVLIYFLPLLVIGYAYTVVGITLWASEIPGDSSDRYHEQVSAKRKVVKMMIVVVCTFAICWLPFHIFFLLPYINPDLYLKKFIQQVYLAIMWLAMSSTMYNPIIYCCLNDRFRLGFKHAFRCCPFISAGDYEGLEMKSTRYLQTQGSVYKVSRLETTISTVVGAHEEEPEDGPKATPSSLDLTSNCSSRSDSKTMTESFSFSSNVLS
Text for in vivo: The pharmacokinetic parameters have been evaluated in both rats and dogs.

As for `Cc1ccccc1-c1cc(N2CCN(C)CC2)ncc1N(C)C(=O)C(C)(C)c1cc(C(F)(F)F)cc(C(F)(F)F)c1` [Ib, 2-(3,5-bis-trifluoromethyl-phenyl)-N-methyl-N-[6-(4-methyl-piperazin-1-yl)-4-o-tolyl-pyridin-3-yl]-isobutyramide], at human NK1 receptor [1], the Ki is 1 nM. In addition, the “selectivity for the NK1 receptor compared to NK2 receptors” value on NK2 receptors is recorded as “over 2 orders of magnitude”. In addition, the clearance (commonly the rate of elimination divided by the concentration) stood at 3.7 mL/min/kg in [2] and 9.2 mL/min/kg in “in vivo”. Besides, the bioavailability (in general, the share of a dose that reaches the circulation, judged against a reference dose that is usually intravenous) in data set [2] (po) amounted to 45%; in the data set “in vivo” (po), 75%. For the same compound, the half-life (in general, the time in which the quantity being followed falls by half) was 24 h in data set [2] (read-out: terminal half-life (converted)) and 18 h in the data set “in vivo”. Further, the values for the Vd (in data set [2] (read-out: volume of distribution); in the data set “in vivo”) were 5.7 L/kg and 15 L/kg, respectively. In addition, the ED50 (as a rule, the dose at which the effect has come halfway, by size or by number of responders) was 0.2 mg/kg in [3] and 0.1 mg/kg in [4] (Mustela putorius, po, read-out: ED50 against apomorphine-induced emesis). Besides, in data set [4] (0.3 mg/kg p.o., 2 hours before the emetogen), the “emesis induced by all emetogens (apomorphine, morphine, ipecacuanha, cisplatin, CuSO4)” value was “completely blocked”. Moreover, the “total plasma concentration required to completely block the foot-tapping behaviour” value in data set [5] worked out at 30 ng/mL. For the same compound, the “dose calculated to inhibit 50% of the foot-tapping behaviour” value in data set [5] (oral administration) is 0.5 mg/kg. Also, the “selectivity for the NK1 receptor compared to NK3 receptors” value on NK3 receptors is recorded as “over 2 orders of magnitude”. Also, in data set [6], the “selectivity for the NK1 receptor compared to over 50 other binding sites” value is on record as “over 2 orders of magnitude”. Besides, the “effect on substance P induced Ca2+ influxes” value at human NK1 receptor [7] (CHO cells expressing recombinant human NK1 receptor, FLIPR) is “inhibited this effect in a concentration dependent manner”. Further, the “type of antagonism at human recombinant NK1 receptors” value on human NK1 receptor [7] (from Ca2+ influx data) is reported as “competitive antagonist”.
